What was measured:
[1] = tested on: circulating peripheral blood leukocytes; test: in vivo leukocyte kinetics / response in asymptomatic rabbits; set-up: species or system New Zealand's albino, giant rabbits
Excerpt: (§1) The pharmacodynamic study to assess the leuko-lymphocyte kinetics has been carried out in New Zealand's albino, giant, female, adult, asymptomatic (healthy) rabbits. The blood samples with EDTA (ethylene-diamino-tetraAcetic acid), non-coagulable, for the periodical weekly controls, have been obtained by aseptic puncture from the marginal vein of the outer ear. The count and the differential cytologic survey of the white series has been routinely performed in a "Coulter" (Coulter Cientifica, S.A., STKs model) differential analyzer, within the two hours following the extraction.
Hereinafter, there is a summary of the most significant results of the preclinical protocols which include different experimental conditions, different BRM-BLAS products and doses which vary in vary of their concentration of the product, frequency and number.
The leuko-lymphocyte mean values of the group run parallelly during the study, in general above the respective basal values before the treatment to which they return in the last two assessments. They reach the higher ones 7, 16 and 20 days after the first, second and third dose, FIG. 12, FIG. 13 and Table VIII (assessments: 3, 8 and 13).
A total number of 225 individual assessments and 45 of the group assessments have been performed, grouped in four evolutive periods moments. The "first" one includes the 40 individual assessments (8 of the group) after the two first doses, days 0 to 43rd; the "second", the 85 (17 of the group) after the third, fourth and fifth doses, days 46th to 147th; the "third", the first 50 (10 of the group) after the sixth, days 153rd to 213th, and the "fourth", the last 50 (10 of the group), days 220th to 282nd, respectively. The assessment of the group prior to the third dose (43rd day), the lymphocyte mean of which has been the lowest during the survey, has been taken as the natural reference baseline for the comparative analysis of punctual and grouped data.
This trail is subsequent to the protocol previously described and corresponds to the "fifth" moment of the global study, FIG. 14 and FIG. 15.
After the subcutaneous administration of a dose of 30 u/Kg (2.1 mcg/Kg) of the BRM-BLAS 278 (Cl) compounds 137 days after the sixth dose of the BRM-BLAS 320 (Ac) compounds, in the presence of high figures of the lymphocyte mean of the group, at the "fourth" moment, such figures were specifically exceeded by the 4th and 5th punctual weekly assessments of the "fifth" moment, 24th (184%) and 31st (180%) days, respectively, FIG. 14. Globally, 28% of the assessment exceed basal values by one or two standard deviations; 57% in three, and the difference is statistically in all of them. The resulting mean of the data gathered for the "fifth" moment with a 158% of the basal values, exceed those of the four previous moments, and the difference is statistically significant compared with those of the "first", "second" and "third", and exceeds that of the "first" in more than one standard deviation, FIG. 15 and (Table IX). […]

human lymphocytes = test: in vitro non-specific lymphoproliferative response (RLP-I) to PHA, human lymphocyte cultures; format: cell-based; details: for RLP-I B < A, number of witness models / RLP-I B < A, percentage of witness models / RLP-I B > A, number of witness models / RLP-I B > A, percentage of witness models: Table V, PHA + BRM-BLAS (B) versus PHA (A); for number of cases with RLP-I B > A in 33-50% of the witness models / number of cases with RLP-I B > A in 67% of the witness models / number of cases with RLP-I B > A in 100% of the witness models / percentage of cases with RLP-I B > A in 33-50% of the witness models / percentage of cases with RLP-I B > A in 67% of the witness models / percentage of cases with RLP-I B > A in 100% of the witness models: Table VI, intragroup individual analysis
Experimental: The "in vitro" lymphocyte response has been assessed in samples of circulating and peripheral venous blood from asymptomatic blood donor adults of both sexes. In general, the lymphocyte cultures include in each case six experimental models called witnesses, and incorporate progressive doses between 0.25-6.0 units (20-500 ng) of the BRM-BLAS compounds and PHA. The RLP-I of each one has been morphologically determined and is expressed in absolute values of lymphoblasts/10,000.
Systematically, in all the cases it has been tabulated the RLP-I to the PHA, basal, of the PHA models; to the PHA+BRM-BLAS, of the "witness" models and the maximum individual response of the witness models (RMC), in each case.

[2] = tested on: circulating peripheral blood lymphocytes; test: in vivo lymphocyte kinetics / response in asymptomatic rabbits; set-up: species or system New Zealand's albino, giant rabbits
Excerpt: as §1
Hereinafter, there is a summary of the most significant results of the preclinical protocols which include different experimental conditions, different BRM-BLAS products and doses which vary in vary of their concentration of the product, frequency and number. […]
This study comprises three concatenated experimental situations. The first one is focused on the vicissitudes of the leuko-lymphocyte kinetics occurred during a pause, "first" moment, that takes place months after several doses, mainly of BRM-BLAS 236 (Cl) compounds and includes 30 individual assessments (6 of the group) days 0 to 39. The second "second" moment, is centered on the successive changes occurred after the administration on the 39th day of an intravenous dose of 8 u/Kg (0.6 mcg/Kg) of the BRM-BLAS 278 (Ac) compounds and includes a total of 25 individual assessments (5 of the group), days 43rd to 68th. The third one, moments "third" to "seventh", analyzes the changes induced after the intravenous administration on the 68th day of 22 u/Kg (1.8 mcg/Kg) of BRM-BLAS 320 (Ac) compounds and includes […] (6 of the group×5 times), days 75th to 287th of the study. The assessment prior to the last dose, the lymphocyte average of which is the lowest of the group during the study, has been selected as the common baseline (100%) for reference of the comparative analysis between the assessments.

Swiss mice = test: single-dose intraperitoneal toxicity in mice; details: i.p. single dose; 236 (Cl) 800 mcg/Kg, 278 (Ac) 4.2 mg/Kg, 320 (Ac) 4.8 mg/Kg, respectively
patients with cancer = details: patients with favourable prognosis factors; cited from earlier work
[3] = three i.v. doses 5 U/Kg (300 ng/Kg) every 21 days, assessment 8, 37th day
[4] = three i.v. doses 5 U/Kg every 21 days
[5] = progressive i.v. doses, "second" moment
[6] = progressive i.v. doses, grouped results
[7] = single i.v. high dose 22 u/Kg (1.8 mcg/Kg)

**Q.** What does the source list for NC1(C[n+]2ccccc2)CC(C(=O)O)NC1=O (stereo not shown) [BRM-BLAS 236 (Cl), 4-ammonium-4-(1-pyridiniomethyl) pyroglutamic acid dichloride]?
**A.** highest leukocyte mean value versus basal [1, 3]: 169%; assessments with leukocyte mean above basal by more than three standard deviations [1, 4]: 5%; assessments with leukocyte mean above basal by more than two standard deviations [1, 4]: 20%; assessments with leukocyte mean above basal over the standard deviation [1, 4]: 55%; assessments with statistically significant difference of leukocytes versus basal [1, 4]: 70%; leukocyte response [1, 4]: increase in the number of leukocytes which affect granulocytes as well as lymphocytes in the same way; time to higher leuko-lymphocyte mean values after first dose ([1]; three i.v. doses 5 U/Kg every 21 days, first dose): 7 days; leuko-lymphocyte mean of "first" period versus "fourth" period and basal ([1]; three i.v. doses 5 U/Kg every 21 days, grouped results): practically by two standard deviations; time to higher leuko-lymphocyte mean values after second dose ([1]; three i.v. doses 5 U/Kg every 21 days, second dose): 16 days; time to higher leuko-lymphocyte mean values after third dose ([1]; three i.v. doses 5 U/Kg every 21 days, third dose): 20 days; RLP-I B < A, number of witness models (human lymphocytes): 20 Num.; RLP-I B < A, percentage of witness models (human lymphocytes): 30%; RLP-I B > A, number of witness models (human lymphocytes): 46 Num.; RLP-I B > A, percentage of witness models (human lymphocytes): 70%; number of cases with RLP-I B > A in 33-50% of the witness models (human lymphocytes): 11 Num.; number of cases with RLP-I B > A in 67% of the witness models (human lymphocytes): 9 Num.; number of cases with RLP-I B > A in 100% of the witness models (human lymphocytes): 2 Num.; percentage of cases with RLP-I B > A in 33-50% of the witness models (human lymphocytes): 100%; percentage of cases with RLP-I B > A in 67% of the witness models (human lymphocytes): 82%; percentage of cases with RLP-I B > A in 100% of the witness models (human lymphocytes): 18%; highest lymphocyte mean value versus basal [2, 3]: 157%; assessments with lymphocyte mean above basal by more than three standard deviations [2, 4]: 10%; assessments with lymphocyte mean above basal by more than two standard deviations [2, 4]: 20%; assessments with lymphocyte mean above basal over the standard deviation [2, 4]: 75%; assessments with statistically significant difference of lymphocytes versus basal [2, 4]: 35%; tolerance / toxicity, single dose (Swiss mice): perfectly tolerated without evidences of toxicity

**Q.** For IFN-α, which “effect on tumor metastases” value (patients with cancer) is on record?
**A.** can cause the regression of tumor metastases

**Q.** With CC(=O)NC1(C[n+]2ccccc2)CC(C(=O)O)N(C(C)=O)C1=O (stereo not shown) [BRM-BLAS 320 (Ac), 1-acetyl-4-acetylamino-4-(1-pyridiniomethyl) pyroglutamic acid acetate] as the compound, how does the “animals with leukocyte mean at "fourth" exceeding "first" moment by two or three standard deviations” value ([1]; progressive i.v. doses) read?
**A.** 40%

**Q.** What about the “assessments with leukocyte mean exceeding basal by one standard deviation” value ([1]; progressive i.v. doses) of the same compound?
**A.** 4.4%

**Q.** What about the “leukocyte punctual assessments versus basal” value ([1]; progressive i.v. doses) of the same compound?
**A.** the difference is never became statistically significant

**Q.** What about the “leukocyte mean versus basal, 227th day” value ([1]; progressive i.v. doses, 227th day) of the same compound?
**A.** 129%

**Q.** What about the “leukocyte mean versus basal, 241st day” value ([1]; progressive i.v. doses, 241st day) of the same compound?
**A.** 136%

**Q.** What about the “RLP-I B < A, number of witness models” value (human lymphocytes) of the same compound?
**A.** 17 Num.

**Q.** And the “RLP-I B < A, percentage of witness models” value (human lymphocytes)?
**A.** 21%

**Q.** And the “RLP-I B > A, number of witness models” value (human lymphocytes)?
**A.** 65 Num.

**Q.** What about the “RLP-I B > A, percentage of witness models” value (human lymphocytes) of the same compound?
**A.** 70%

**Q.** And the “number of cases with RLP-I B > A in 33-50% of the witness models” value (human lymphocytes)?
**A.** 14 Num.

**Q.** What about the “number of cases with RLP-I B > A in 67% of the witness models” value (human lymphocytes) of the same compound?
**A.** 9 Num.

**Q.** What about the “number of cases with RLP-I B > A in 100% of the witness models” value (human lymphocytes) of the same compound?
**A.** 5 Num.

**Q.** What about the “percentage of cases with RLP-I B > A in 33-50% of the witness models” value (human lymphocytes) of the same compound?
**A.** 100%

**Q.** What about the “percentage of cases with RLP-I B > A in 67% of the witness models” value (human lymphocytes) of the same compound?
**A.** 64%

**Q.** What about the “percentage of cases with RLP-I B > A in 100% of the witness models” value (human lymphocytes) of the same compound?
**A.** 36%

**Q.** And the “animals with individual lymphocyte mean "fourth" versus "first" moment higher by three standard deviations” value ([2]; progressive i.v. doses)?
**A.** 60%

**Q.** And the “animals with individual lymphocyte mean "fourth" versus "first" moment higher by two standard deviations” value ([2]; progressive i.v. doses)?
**A.** 40%

**Q.** And the “lymphocyte response” value ([2]; progressive i.v. doses 5-30 units/Kg (0.4-2.4 mcg/Kg))?
**A.** selective and significant increase in the number of lymphocytes that starts after the third dose and reaches its maximum level after the sixth

**Q.** And the “assessments with lymphocyte mean exceeding one standard deviation, "second" moment” value [2, 5]?
**A.** 41%

**Q.** And the “assessments with statistically significant lymphocyte difference, "second" moment” value [2, 5]?
**A.** 43%

**Q.** And the “highest average lymphocyte value versus basal” value ([2]; progressive i.v. doses, day 241st of the study, "fourth" moment)?
**A.** 178%

**Q.** And the “assessments exceeding mean lymphocyte basal values by more than one, two or three standard deviations, "third" moment” value ([2]; progressive i.v. doses, days 153rd to 213th)?
**A.** 80%

**Q.** And the “assessments exceeding mean lymphocyte basal values by more than one, two or three standard deviations, "fourth" moment” value ([2]; progressive i.v. doses, days 220th to 282nd)?
**A.** 100%

**Q.** And the “grouped lymphocyte mean versus baseline, "first" period” value [2, 6]?
**A.** 110%

**Q.** What about the “grouped lymphocyte mean versus baseline, "fourth" period” value [2, 6] of the same compound?
**A.** 152%

**Q.** What about the “grouped lymphocyte mean versus baseline, "second" period” value [2, 6] of the same compound?
**A.** 120%

**Q.** And the “grouped lymphocyte mean versus baseline, "third" period” value [2, 6]?
**A.** 131%

**Q.** And the “cases with individual lymphocyte mean at "seventh" exceeding "first" moment by one, two or three standard deviations” value ([2]; single i.v. high dose 22 u/Kg)?
**A.** 80%

**Q.** And the “lymphocyte mean versus baseline from the 53rd day” value [2, 7]?
**A.** surpasses the baseline by two or three standard deviations from the 53rd day

**Q.** And the “onset of lymphocyte increase after the dose” value [2, 7]?
**A.** twenty days after the high dose

**Q.** And the “highest lymphocyte mean versus basal” value ([2]; single i.v. high dose 22 u/Kg (1.8 mcg/Kg), 88th and 202nd days after dose)?
**A.** 212%

**Q.** What about the “duration of statistically significant lymphocyte increase” value ([2]; single i.v. high dose 22 u/Kg (1.8 mcg/Kg), from 53rd day) of the same compound?
**A.** statistically significant uninterruptedly, until the 213th day

**Q.** And the “selectivity for lymphocytes versus granulocytes and monocytes” value ([2]; single i.v. high dose 22 u/Kg, FIG. 18 and FIG. 19)?
**A.** sustained and selective immunomodulating activity or effect of the BRM-BLAS 320 (Ac) compounds on subpopulations of lymphocytes without detriment to the number of granulocytes and monocytes

**Q.** What about the “tolerance / toxicity, single dose” value (Swiss mice) of the same compound?
**A.** perfectly tolerated without evidences of toxicity

— patent US6057450A, “Derivatives of pyroglutaminic acid preparation process and applications” (Totiam, S.L., priority 1994, dated 2000)
